# Results: article PMC2358886, “Evolution of pharmacologic specificity in the pregnane X receptor” (BMC Evolutionary Biology, 2008)
# Tests used:
# rat PXR = target: T1, rat PXR (Rattus norvegicus, UniProt Q9R1A7); assay: cell-based
# T1 sequence (Q9R1A7 1-431): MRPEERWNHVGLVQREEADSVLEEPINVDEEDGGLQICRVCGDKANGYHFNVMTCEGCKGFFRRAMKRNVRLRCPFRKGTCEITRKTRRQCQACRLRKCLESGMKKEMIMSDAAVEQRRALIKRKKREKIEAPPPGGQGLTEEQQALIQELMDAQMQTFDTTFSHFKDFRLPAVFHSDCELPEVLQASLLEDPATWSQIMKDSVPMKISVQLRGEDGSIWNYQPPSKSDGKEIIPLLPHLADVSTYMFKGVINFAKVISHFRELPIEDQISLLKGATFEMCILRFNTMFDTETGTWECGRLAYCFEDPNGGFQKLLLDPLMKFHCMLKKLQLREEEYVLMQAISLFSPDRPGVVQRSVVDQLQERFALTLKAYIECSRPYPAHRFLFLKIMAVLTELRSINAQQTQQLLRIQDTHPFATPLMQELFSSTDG
# chicken PXR = target: T2, chicken PXR (Gallus gallus, UniProt Q9DFH3); assay: in vitro
# T2 sequence (Q9DFH3 1-391): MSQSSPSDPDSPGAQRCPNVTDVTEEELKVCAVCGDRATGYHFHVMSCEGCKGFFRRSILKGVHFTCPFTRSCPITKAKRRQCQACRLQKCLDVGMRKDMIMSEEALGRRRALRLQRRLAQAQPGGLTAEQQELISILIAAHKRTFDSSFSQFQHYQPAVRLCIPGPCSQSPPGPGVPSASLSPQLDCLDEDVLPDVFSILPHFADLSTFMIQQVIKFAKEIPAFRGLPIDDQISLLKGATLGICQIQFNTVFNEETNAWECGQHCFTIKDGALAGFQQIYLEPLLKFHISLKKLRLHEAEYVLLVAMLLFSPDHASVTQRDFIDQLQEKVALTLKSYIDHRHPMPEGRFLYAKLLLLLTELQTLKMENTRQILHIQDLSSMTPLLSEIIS
# human PXR = target: T3, human PXR (Homo sapiens, UniProt O75469); details: human
# T3 sequence (O75469 1-434): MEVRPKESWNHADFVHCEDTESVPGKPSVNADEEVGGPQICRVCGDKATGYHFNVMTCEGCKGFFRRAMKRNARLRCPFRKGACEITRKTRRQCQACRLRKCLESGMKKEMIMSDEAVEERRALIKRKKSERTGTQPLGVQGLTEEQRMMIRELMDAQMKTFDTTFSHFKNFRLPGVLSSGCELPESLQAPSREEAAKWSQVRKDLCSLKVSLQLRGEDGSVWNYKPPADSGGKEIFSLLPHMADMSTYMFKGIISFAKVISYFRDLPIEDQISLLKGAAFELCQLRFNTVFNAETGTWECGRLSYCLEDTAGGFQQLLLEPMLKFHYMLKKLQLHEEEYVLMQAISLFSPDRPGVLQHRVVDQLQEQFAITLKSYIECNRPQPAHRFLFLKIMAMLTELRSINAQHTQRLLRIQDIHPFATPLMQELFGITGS
# zebrafish PXR [1] = target: T4, zebrafish PXR (Danio rerio, UniProt A5WYG8); assay: cell-based
# T4 sequence (A5WYG8 144-430): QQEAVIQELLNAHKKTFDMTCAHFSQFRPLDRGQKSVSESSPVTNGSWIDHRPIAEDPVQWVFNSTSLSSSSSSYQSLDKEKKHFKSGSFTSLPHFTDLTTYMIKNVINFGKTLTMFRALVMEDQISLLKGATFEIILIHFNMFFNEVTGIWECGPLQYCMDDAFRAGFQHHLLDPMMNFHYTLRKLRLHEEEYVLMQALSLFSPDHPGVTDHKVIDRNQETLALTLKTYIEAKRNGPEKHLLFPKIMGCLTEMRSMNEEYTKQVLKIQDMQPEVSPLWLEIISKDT
# Xenopus tropicalis PXR = assay: Activation of Xenopus tropicalis PXR (GAL4-LBD chimeric construct) luciferase reporter assay; assay type: cell-based
# Description: Cloning of the LBD of this PXR from adult female ovary and expression in a GAL4-LBD chimeric construct allowed for determination of ligand specificity.
# The PXR activation assay was a luciferase-based reporter assay [17, 45]. On day 1, 30,000 cells/well were seeded onto 96-well white opaque plates (Corning-Costar, Corning, NY, USA). On day 2, cells were transfected using the calcium phosphate precipitation method with expression vector or 'empty' control vector and luciferase reporter plasmid. On day 3, the cells were washed and then incubated with medium containing charcoal-dextran treated fetal bovine serum (Hyclone, Logan, UT, USA) and drugs or vehicle. […]
# HepG2 cells = details: human, 24 hr
# Ciona VDR/PXR = assay: Activation of Ciona VDR/PXR (LBD/GAL4 chimeric receptor) luciferase reporter assay; assay type: cell-based, Ciona intestinalis; details: screening, reference maximal activator 20 μM 6-formylindolo-[3,2-b]carbazole
# Excerpt: The LBD of Ciona VDR/PXR was cloned from cDNA fragments generously provided by Professors Yuji Kohara and Norituki Satoh, and then inserted into the PM2-GAL4 plasmid to create an LBD/GAL4 chimeric receptor.
# The LBD of Xenopus tropicalis (Western clawed frog) PXR (xtPXR) was cloned by PCR from RNA extracted from ovary of an adult female frog. Ciona VDR/PXR was cloned from cDNA fragments ciem829d05 and cilv048e18 provided by Professor Yuji Kohara (Center for Genetic Resource Information, National Institute of Genetics, Research Organization of Information and Systems, Mishima, Japan) and Professor Noriyuki Satoh (Kyoto University, Kyoto, Japan), with analysis of the cDNA clones supported by Grant-in-aid for Scientific Research on Priority Area "Genome" of Ministry of Education, Culture, Sports, Science and Technology, Japan.
# The creation of a HepG2 (human liver) cell line stably expressing the human Na^+-taurocholate cotransporter (NTCP) has been previously reported. HepG2-NTCP cells were grown in modified Eagle's medium-α containing 10% fetal bovine serum and 1% penicillin/streptomycin (Invitrogen, Carlsbad, CA, USA). Plasmids containing cDNAs for 8 PXRs from 7 species (human, mouse, rat, rabbit, chicken [also called chicken X receptor, CXR], African clawed frog [also termed Xenopus laevis benzoate X receptors α and β, BXRα and BXRβ ], zebrafish), as well as the reporter constructs tk-UAS-Luc and CYP3A4-PXRE-Luc, and 'empty' vectors pCDNA, PsG5, and PM2 were generously provided by SA Kliewer, JT Moore, and LB Moore (GlaxoSmithKline, Research Triangle Park, NC, USA). […] For the full-length expression vectors, the reporter plasmid was CYP3A4-PXRE-Luc, a construct that contains a promoter element from CYP3A4 (recognized by PXR DBDs) driving luciferase expression. For the GAL4/LBD expression constructs, the reporter plasmid was tk-UAS-Luc, which contains GAL4 DNA binding elements driving luciferase expression. The following transfection ratios of reporter, receptor, and β-galactosidase plasmids were used (ng/well): human, mouse, rabbit, and rat PXRs – 25/2.7/20; chicken PXR – 10/1/20; Xenopus tropicalis PXR, zebrafish PXR, and Ciona VDR/PXR – 75/50/20.
# The PXR activation assay was a luciferase-based reporter assay. On day 1, 30,000 cells/well were seeded onto 96-well white opaque plates (Corning-Costar, Corning, NY, USA). On day 2, cells were transfected using the calcium phosphate precipitation method with expression vector or 'empty' control vector and luciferase reporter plasmid. On day 3, the cells were washed and then incubated with medium containing charcoal-dextran treated fetal bovine serum (Hyclone, Logan, UT, USA) and drugs or vehicle. On day 4, the cells were washed and the medium replaced with serum-free medium. […]
# zebrafish PXR [2] = target: T4, zebrafish PXR; details: zebrafish
structure (smiles),measurement,setting,value
"CCCCOC(=O)c1ccc(N)cc1 [MI4, n-Butyl-4-aminobenzoate]",EC50,rat PXR,> 100 µM
same,EC50,chicken PXR,> 100 µM
same,hPXR Efficacy,human PXR,1.35
same,EC50,zebrafish PXR [1],13.8 µM
same,Activation of Xenopus tropicalis PXR (in words),Xenopus tropicalis PXR,activates
same,Toxicity,HepG2 cells,100 µM
same,Activation of Ciona VDR/PXR (in words),Ciona VDR/PXR; listed as n-butyl p-aminobenzoate,Weaker activation
same,Activation of Ciona VDR/PXR (in words),Ciona VDR/PXR; listed as n-butyl-p-aminobenzoate,micromolar range
same,zfPXR Efficacy,zebrafish PXR [2],0.69
